Data from patent US11292801B2, “Calpain modulators and therapeutic uses thereof” (Blade Therapeutics, Inc., priority 2016, dated 2022).

Legend:
[1] = target: T1, Human Calpain 2/NS1 (Homo sapiens, UniProt P17655); assay: Biochemical inhibition of calpain 2, continuous fluorescence (FRET substrate) assay; details: mean, read-out: Human Calpain 2/NS1 IC50 (nM)_MEAN
T1 sequence (P17655 1-700): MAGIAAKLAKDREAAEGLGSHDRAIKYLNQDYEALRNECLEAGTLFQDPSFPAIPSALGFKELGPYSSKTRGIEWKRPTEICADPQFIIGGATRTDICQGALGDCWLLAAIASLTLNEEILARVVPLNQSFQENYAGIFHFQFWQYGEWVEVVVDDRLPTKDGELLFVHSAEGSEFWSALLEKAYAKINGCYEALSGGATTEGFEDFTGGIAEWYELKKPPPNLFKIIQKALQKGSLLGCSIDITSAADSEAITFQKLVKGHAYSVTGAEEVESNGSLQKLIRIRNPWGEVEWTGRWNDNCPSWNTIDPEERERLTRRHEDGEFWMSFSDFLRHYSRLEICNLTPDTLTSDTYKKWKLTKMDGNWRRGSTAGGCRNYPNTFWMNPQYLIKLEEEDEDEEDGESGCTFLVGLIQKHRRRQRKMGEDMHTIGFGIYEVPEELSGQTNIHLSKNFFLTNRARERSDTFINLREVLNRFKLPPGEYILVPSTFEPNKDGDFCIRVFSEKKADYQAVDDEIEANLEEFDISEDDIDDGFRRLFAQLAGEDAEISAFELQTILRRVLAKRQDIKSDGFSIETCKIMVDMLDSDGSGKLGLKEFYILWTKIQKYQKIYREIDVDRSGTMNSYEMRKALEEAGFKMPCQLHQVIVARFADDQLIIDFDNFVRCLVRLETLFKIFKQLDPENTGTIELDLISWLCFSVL
T1 sequence (P04632 1-268 partner): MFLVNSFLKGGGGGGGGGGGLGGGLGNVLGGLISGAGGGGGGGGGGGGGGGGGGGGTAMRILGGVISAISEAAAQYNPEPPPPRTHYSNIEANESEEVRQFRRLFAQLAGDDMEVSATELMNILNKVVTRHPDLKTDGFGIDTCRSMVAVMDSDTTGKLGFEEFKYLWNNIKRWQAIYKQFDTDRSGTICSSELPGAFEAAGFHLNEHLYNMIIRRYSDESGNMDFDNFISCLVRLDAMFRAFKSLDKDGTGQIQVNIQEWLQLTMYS
Method: (§1) Calpain 1, 2, and 9 activity and inhibition thereof are assessed by means of a continuous fluorescence assay. The SensoLyte 520 Calpain substrate (Anaspec Inc) is optimized for detecting calpain activity. This substrate contains a novel internally quenched 5-FAM/QXL™ 520 FRET pair. Calpains 1, 2, and 9 cleave the FRET substrate into two separate fragments resulting in an increase of 5-FAM fluorescence that is proportional to calpain activity.
(§2) Assays are typically setup in black 384-well plates using automated liquid handling as follows. Calpain assay base buffer typically contains 50 mM Tris, pH˜7.5, 100 mM NaCl and 1 mM DTT. Inhibitors are serially diluted in DMSO and used to setup 2× mixtures with calpains in the aforementioned buffer. After incubation at ambient temperature (25C), the reaction is initiated by adding a 2× mix of the fluorescent peptide substrate and CaCl2) (required for in-situ calpain activation) in the same buffer. Reaction progress curve data are typically collected for 10 min using excitation/emission wavelengths of 490 nm/520 nm on SpectraMax i3× or the FLIPR-Tetra plate readers (Molecular Devices Inc). Reaction rates were calculated from progress curve slopes typically over 1-5 min. Dose response curves (rate vs. log inhibitor concentration) were typically fit to a 4-parameter logistic function to extract IC50 values.

[2] = target: T2, Human Calpain 1/NS1 (Homo sapiens, UniProt P07384); assay: Biochemical inhibition of calpain 1, continuous fluorescence (FRET substrate) assay; details: mean, read-out: Human Calpain 1/NS1 IC50 (nM)_MEAN
T2 sequence (P07384 1-714): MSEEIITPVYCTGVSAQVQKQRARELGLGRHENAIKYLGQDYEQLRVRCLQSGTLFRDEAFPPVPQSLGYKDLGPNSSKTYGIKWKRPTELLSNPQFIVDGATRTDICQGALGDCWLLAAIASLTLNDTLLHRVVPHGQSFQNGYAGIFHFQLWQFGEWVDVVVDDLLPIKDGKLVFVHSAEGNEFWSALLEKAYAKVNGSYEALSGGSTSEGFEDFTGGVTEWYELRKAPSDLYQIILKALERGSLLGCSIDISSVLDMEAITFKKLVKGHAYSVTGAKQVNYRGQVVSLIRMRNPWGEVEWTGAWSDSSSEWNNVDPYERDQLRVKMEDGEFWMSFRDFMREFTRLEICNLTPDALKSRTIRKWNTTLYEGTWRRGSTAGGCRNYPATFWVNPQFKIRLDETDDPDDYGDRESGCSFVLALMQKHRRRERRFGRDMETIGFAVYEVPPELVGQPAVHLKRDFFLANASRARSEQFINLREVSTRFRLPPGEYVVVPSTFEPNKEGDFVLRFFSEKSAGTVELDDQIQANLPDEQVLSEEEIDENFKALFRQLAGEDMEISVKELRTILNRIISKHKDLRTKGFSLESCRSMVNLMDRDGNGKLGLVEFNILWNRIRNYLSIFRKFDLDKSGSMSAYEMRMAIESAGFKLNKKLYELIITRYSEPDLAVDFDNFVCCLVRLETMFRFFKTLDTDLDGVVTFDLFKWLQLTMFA
T2 sequence (P04632 1-268 partner): T1 sequence (P04632 1-268 partner)
Method: as §1, §2

[3] = target: T3, Human Calpain 9/NS1 (Homo sapiens, UniProt O14815); assay: Biochemical inhibition of calpain 9, continuous fluorescence (FRET substrate) assay; details: mean, read-out: Human Calpain 9/NS1 IC50 (nM)_MEAN
T3 sequence (O14815 1-690): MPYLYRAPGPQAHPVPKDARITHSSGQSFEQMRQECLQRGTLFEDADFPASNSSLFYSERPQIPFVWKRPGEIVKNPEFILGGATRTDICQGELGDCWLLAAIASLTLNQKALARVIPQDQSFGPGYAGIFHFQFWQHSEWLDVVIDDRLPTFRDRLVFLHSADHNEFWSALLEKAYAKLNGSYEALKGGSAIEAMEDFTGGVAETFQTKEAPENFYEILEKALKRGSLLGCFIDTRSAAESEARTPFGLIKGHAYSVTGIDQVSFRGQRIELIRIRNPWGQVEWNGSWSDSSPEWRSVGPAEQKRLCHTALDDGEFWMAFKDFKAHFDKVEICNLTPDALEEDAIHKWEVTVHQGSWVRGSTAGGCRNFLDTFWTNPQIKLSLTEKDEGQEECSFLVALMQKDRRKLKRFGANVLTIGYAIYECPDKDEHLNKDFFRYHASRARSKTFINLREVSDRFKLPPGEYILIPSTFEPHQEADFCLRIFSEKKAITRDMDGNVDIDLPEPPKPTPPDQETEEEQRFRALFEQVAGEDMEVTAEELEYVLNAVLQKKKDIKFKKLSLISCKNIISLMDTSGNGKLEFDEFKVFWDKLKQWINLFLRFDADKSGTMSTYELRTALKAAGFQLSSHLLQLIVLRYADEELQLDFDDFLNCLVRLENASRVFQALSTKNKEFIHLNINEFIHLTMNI
T3 sequence (P04632 1-268 partner): T1 sequence (P04632 1-268 partner)
Method: as §1, §2

Row | IC50 [1] [nM] | IC50 [2] [nM] | IC50 [3] [nM] | Structure (SMILES)
1 | > 10000 | > 10000 | < 3000 | CN(C)c1ccc(CNC(=O)C(=O)C2CCCCOCCOCc3ccccc3C(=O)N2)cc1 (stereo not drawn) [Compound 113, N-(4-(dimethylamino)benzyl)-2-oxo-2-(12-oxo-1,3,4,6,7,8,9,10,11,12-decahydrobenzo[f][1,4]dioxa[9]azacyclotetradecin-10-yl)acetamide]
2 | > 10000 | > 10000 | < 3000 | O=C(NCc1ccccc1)C(=O)C1CCCCOCCOCc2ccccc2C(=O)N1 (stereo not drawn) [Compound 97, N-benzyl-2-oxo-2-(12-oxo-1,3,4,6,7,8,9,10,11,12-decahydrobenzo[f][1,4]dioxa[9]azacyclotetradecin-10-yl)acetamide]
3 | 3000 to 10000 | > 10000 | < 3000 | O=C(NCc1ccc2c(c1)OCO2)C(=O)C1CCCCOCCOCc2ccccc2C(=O)N1 (stereo not drawn) [Compound 81, N-(benzo[d][1,3]dioxol-5-ylmethyl)-2-oxo-2-(12-oxo-1,3,4,6,7,8,9,10,11,12-decahydrobenzo[f][1,4]dioxa[9]azacyclotetradecin-10-yl)acetamide]
4 | > 10000 | > 10000 | > 10000 | CON(C)C(=O)[C@@H]1C/C=C\CCOc2ccnc(n2)-c2ccccc2C(=O)N1 [Compound 136, (S,Z)—N-methoxy-N-methyl-3-oxo-11-oxa-4-aza-1(2,4)-pyrimidina-2(1,2)-benzenacycloundecaphan-7-ene-5-carboxamide]
5 | < 3000 | < 3000 | < 3000 | NC(=O)C(=O)[C@@H]1C/C=C\CCOc2ccnc(n2)-c2ccccc2C(=O)N1 [Compound 138, (S,Z)-2-oxo-2-(3-oxo-11-oxa-4-aza-1(2,4)-pyrimidina-2(1,2)-benzenacycloundecaphan-7-en-5-yl)acetamide]
6 | > 10000 | > 10000 | < 3000 | O=C(NCc1ccc(OC(F)(F)F)cc1)C(=O)C1CCCCOCCOCc2ccccc2C(=O)N1 (stereo not drawn) [Compound 87, 2-Oxo-2-(12-oxo-1,3,4,6,7,8,9,10,11,12-decahydrobenzo[f][1,4]dioxa[9]aza-cyclotetradecin-10-yl)-N-(4-(trifluoromethoxy)benzyl)acetamide]
7 | > 10000 | > 10000 | > 10000 | C[C@@H](NC(=O)C(=O)C1CCCCOCCOCc2ccccc2C(=O)N1)c1cccnc1 (stereo partly drawn) [Compound 127, 2-Oxo-2-(12-oxo-1,3,4,6,7,8,9,10,11,12-decahydrobenzo[f][1,4]dioxa[9]aza-cyclotetradecin-10-yl)-N—((R)-1-(pyridin-3-yl)ethyl)acetamide]
8 | < 3000 | 3000 to 10000 | < 3000 | O=C[C@@H]1CCCCCCCCCc2ccccc2C(=O)N1 [Compound 16, (S)-1-Oxo-1,2,3,4,5,6,7,8,9,10,11,12-dodecahydrobenzo[c][1]aza-cyclotetradecine-3-carbaldehyde]
9 | < 3000 | > 10000 | < 3000 | O=C[C@@H]1CC=CCOCCn2ccc3cccc(c32)C(=O)N1 [Compound 9]
10 | > 10000 | > 10000 | 3000 to 10000 | O=C(NCCCN1CCOCC1)C(=O)C1CCCCOCCOCc2ccccc2C(=O)N1 (stereo not drawn) [Compound 92, N-(3-morpholinopropyl)-2-oxo-2-(12-oxo-1,3,4,6,7,8,9,10,11,12-decahydrobenzo[f][1,4]dioxa[9]azacyclotetradecin-10-yl)acetamide]
11 | > 10000 | > 10000 | 3000 to 10000 | O=C(NC1CC1)C(=O)[C@@H]1C/C=C/COCCOCc2ccccc2C(=O)N1 [Compound 79, (S,E)-N-cyclopropyl-2-oxo-2-(12-oxo-1,3,4,6,9,10,11,12-octahydrobenzo[f][1,4]dioxa[9]azacyclotetradecin-10-yl)acetamide]
12 | < 3000 | < 3000 | < 3000 | CCNC(=O)C(=O)[C@@H]1Cc2ccc(cc2)OCCCCOc2ccc3c(cnn3-c3ncccc3C(=O)N1)c2 [Compound 47, N-ethyl-2-oxo-2-((5S)-3-oxo-1H-8,13-dioxa-4-aza-1(1,5)-indazola-2(2,3)-pyridina-7(1,4)-benzenacyclotridecaphane-5-yl)acetamide]
13 | < 3000 | < 3000 | < 3000 | O=C[C@@H]1C/C=C/CCCCCCCc2ccccc2C(=O)N1 [Compound 23, (S,E)-1-Oxo-2,3,4,7,8,9,10,11,12,13-decahydro-1h-benzo[c][1]aza-cyclopentadecine-3-carbaldehyde]
14 | > 10000 | > 10000 | > 10000 | CCNC(=O)C(=O)[C@@H]1C/C=C/CCCCCCc2ccccc2C(=O)N1 [Compound 17, (S,E)-N-ethyl-2-oxo-2-(1-oxo-1,2,3,4,7,8,9,10,11,12-decahydrobenzo[c][1]azacyclotetradecin-3-yl)acetamide]
15 | < 3000 | < 3000 | < 3000 | O=C[C@@H]1CCCCCCCCCCc2ccccc2C(=O)N1 [Compound 28, (S)-1-Oxo-2,3,4,5,6,7,8,9,10,11,12,13-dodecahydro-1h-benzo[c][1]aza-cyclopentadecine-3-carbaldehyde]
16 | < 3000 | > 10000 | < 3000 | O=C[C@@H]1CCCCCCOc2ccccc2C(=O)N1 [Compound 24, (S)-10-Oxo-3,4,5,6,7,8,9,10-octahydro-2h-benzo[b][1]oxa[5]aza-cyclododecine-8-carbaldehyde]
